Test results as given in patent publication US20210276960A1, “INHIBITORS OF TISSUE TRANSGLUTAMINASE 2 (TG2) AND USES THEREOF” (Northwestern University, priority 2020, published 2021).

Assays:
[1] = tested on: TG2 co-localization with integrin β1, p-FAK, c-Src, p-c-Src in SKOV3 cells; assay: Confocal IF co-localization analysis; format: cell-based; settings: 1 μM
Experimental: In order to analyze cell adhesion complex proteins expression and localization upon early attachment, cells were treated as stated above and then seeded onto FN-coated cover slips for 30 minutes at 37° C. Samples were fixed in 4% p-formaldehyde (PFA) and permeabilized with 0.2% Triton-X-100. After blocking, focal contacts were identified by using anti-vinculin antibodies, activation of integrins signaling pathway was assessed by antibodies against phosphorylated focal adhesion kinase (FAK), while actin cytoskeleton was labeled by Alexa Fluor 488-conjugated phalloidin (Life Technologies, #A12379). Nuclei were stained with 1:10000 Hoechst (Thermo Scientific) and specimens were mounted in Prolong Gold anti-fadereagent (Life Technologies). Cells were analyzed by laser scanning using a Nikon A1RGaAsPConfocal Laser Microscope. For co-localization analyses, SKOV3 cells were treated with DMSO (control) or TG53 (1 μM) and plated on FN-coated chamber slides (BD Biosciences) for 72 hrs. […] Colocalization percentage was calculated by normalizing the pixels corresponding to Cy5 or Alexa Fluor 488 emissions to DAPI pixels in the same cell, followed by merging area of green with area of red and determination of average of overlap areas. A Student' t test was calculated to determine statistical significance of differences between drug treated and DMSO control treated cells.

[2] = tested on: OVCAR433 cells adhesion onto LP9 monolayers; assay: Cell adhesion to LP9 mesothelial monolayers, OVCAR433; format: cell-based; settings: at concentrations >10 μM
Experimental: LP9 mesothelial cells added to clear-bottom 96-well plate at 12,000 cells/well were grown to confluency over 48 hours (h). OC cells were labeled with calcein AM and seeded at a density of 4×10^4 cells to monolayers of mesothelial cells and incubated for 1 h. Non-adherent cells were removed by washing with PBS.

[3] = tested on: OVCAR433 cells adhesion to FN; assay: Solid phase adhesion assay to FN, OVCAR433; format: cell-based; design: inhibition of adhesion to FN relative to TG53: dose or concentration left out as unconfirmed
Experimental: Cells labeled with calcein AM (Life Technologies, #L3224) were seeded at a density of 4×10^4 cells in 96-well plates pre-coated with FN (5 μg/mL, Sigma, #F1141), and blocked using 1% BSA (Sigma, #A9647) in PBS in the presence of selected compounds diluted at the specified concentrations, in serum free media. After 45 minutes, unattached cells were washed using PBS containing 1 mM MgCl2(Sigma, #M8266) and adherent cells were quantified in a SpectraMaxGeminiXS fluorescence plate reader (Molecular Devices, Palo Alto, Calif.) at 530 nm wavelength. Experiments were performed inquadruplicate and repeated at least twice.

SKOV3 cells = assay: Wound-healing assay, SKOV3; format: cell-based; settings: 8 μM, 24 hours
Experimental: Wound Healing was Performed in 12-Well Plates Coated with 1 μg/Ml FN (Sigma, #1141) overnight at 4° C. OC cells were plated at a density of 2×10^5 cells/well in media containing 2% FBS. Under these conditions cells adhered on substrate, but cell proliferation was minimized. After 16 hours, the cell monolayer was scraped in straight line. Cell debris was removed and serum free media containing selected SMIs or control was replenished. For consistency during image acquisition, a reference point was marked close to the scratch mark and the plate was imaged under phase-contrast microscope at 0, 2, 6, 12 and 24 hours. Wound closure was assessed as the distance between the wound edges, calculated and quantified using the Image Pro-Express software. The percentage of wound closure was evaluated using the formula […]. The rate of migration (μm/h) of OC cells into the wound space was evaluated as the distance difference between wound edges at 0 and 24 h, divided by 24. The experiments were performed in duplicates.

TG2 = molecular target: T1, TG2 (Cavia cutleri, UniProt P08587); assay: Isothermal titration calorimetry (ITC); format: binding
T1 construct: purchased Sigma T5398
T1 sequence (P08587 whole entry): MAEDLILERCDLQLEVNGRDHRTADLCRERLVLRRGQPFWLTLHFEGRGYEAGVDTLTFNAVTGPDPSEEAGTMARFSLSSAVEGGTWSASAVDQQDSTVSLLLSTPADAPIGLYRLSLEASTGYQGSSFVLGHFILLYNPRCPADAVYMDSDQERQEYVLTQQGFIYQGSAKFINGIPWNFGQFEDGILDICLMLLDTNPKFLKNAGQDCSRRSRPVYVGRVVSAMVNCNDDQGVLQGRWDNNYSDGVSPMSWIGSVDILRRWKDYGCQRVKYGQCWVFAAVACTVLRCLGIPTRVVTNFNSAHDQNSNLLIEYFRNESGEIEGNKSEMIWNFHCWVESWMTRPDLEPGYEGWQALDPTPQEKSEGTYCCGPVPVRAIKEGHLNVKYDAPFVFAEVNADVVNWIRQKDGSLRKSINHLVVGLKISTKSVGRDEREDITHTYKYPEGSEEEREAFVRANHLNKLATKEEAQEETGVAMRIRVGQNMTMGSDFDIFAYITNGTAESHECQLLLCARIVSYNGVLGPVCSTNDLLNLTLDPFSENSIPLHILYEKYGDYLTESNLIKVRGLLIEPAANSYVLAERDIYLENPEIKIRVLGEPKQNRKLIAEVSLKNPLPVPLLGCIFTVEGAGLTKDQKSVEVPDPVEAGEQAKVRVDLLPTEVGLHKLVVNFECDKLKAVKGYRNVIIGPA
Experimental: The 45 kDa fibronectin fragment (FN45) corresponding to the TG2 binding region (Sigma, # F0162) was biotinylated using Biotin (Type A) Fast Conjugation Kit (Abcam, # ab201795). Biotinylated FN45 (10 μg/mL in PBS) was captured on pre-hydrated streptavidin-coated sensors (Pall Forte Bio SAX 18-5117). At each TG2 concentration, the binding kinetics were determined by following this sequence run: baseline (PBS for 30 s), association step (varying concentrations of TG2 in PBS for 120 s), and dissociation step (PBS for 120 s). A new FN45 biosensor was prepared for each run. To analyze the effect of the inhibitor MT4 on the interaction between TG2 and FN, a solution of 20 μg/mL of bio-FN45 was used for capturing FN45 on the streptavidin-coated sensors and the association step was 90 s. For each sensor, the capturing step was measured in real-time in order to assess the stability of the signal and the reproducibility between sensors. The saturation level Rmax was 0.6 (+0.08) for all sensors and no dissociation of the biotinylated FN45 was observed over 60 minutes. […] For the experiments with (TG2+MT4), controls were performed at each MT4 concentration and Rmax values were corrected for non-specific binding and any effects of DMSO on the TG2-FN45 interaction (these effects were below 8%). All BLI experiments were performed at 22° C. […]

SMILES	FAK and Src phosphorylation [1]	colocalization of TG2 with integrin β1, pFAK, c-Src and pSrc [1]	OVCAR433 adhesion to the LP9 layer [2]	inhibition of adhesion to FN relative to TG53 [3]	cell adhesion to FN, dose dependence ([3]; 2 μM-25 μM)	motility (scratch repair) (SKOV3 cells)	Kd (TG2) [µM]	change in enthalpy, ΔH (TG2; 160 μM MT4 titrated into 10 μM TG2, 25° C.) [kcal/mol]
COc1ccc(Cl)cc1C(=O)Nc1ccc(Nc2nc(C)cc(N(C)C)n2)cc1 [TG53]	marked decrease	significant decrease						
Cc1cc(N(C)C)nc(Nc2ccc(NC(=O)Cc3ccccc3)cc2)n1 [MT-4]			dose-dependent inhibitory effect	more active than TG53	dose-dependent inhibitory effect	inhibited	5.1	-20.5
